Measurements from patent publication US20230416227A1, “PLASMA KALLIKREIN INHIBITORS” (Merck Sharp & Dohme LLC, priority 2020, published 2023).

Columns and labels:
Human plasma kallikrein = biological target: T1, Human plasma kallikrein (Homo sapiens, UniProt P03952); assay: Plasma Kallikrein Assay; assay type: biochemical; conditions: purified Human plasma kallikrein 0.5 nM, substrate Acetyl-K-P-R-AFC, pH 7.4
T1 construct: yields a heavy chain (371 amino acids) and a light chain (248 amino acids); purchased Enzyme Research Laboratories

human factor XIa = human factor XIa (Homo sapiens, UniProt P03951); assay: Factor XIa Assay; assay type: biochemical; conditions: human factor XIa 0.04 nM, substrate GPR-AFC, 30 min pre-incubation at 25° C., pH 7.4; read-out: FXIa IC50
Method: The effectiveness of a compound of the present invention as an inhibitor of Coagulation factor XIa can be determined using a relevant purified serine protease, and an appropriate synthetic substrate. The rate of hydrolysis of the chromogenic or fluorogenic substrate by the relevant serine protease was measured both in the absence and presence of compounds of the present invention. Assays were conducted at rt or at 37° C. […] A decrease in the rate of fluorescence change in the presence of inhibitor is indicative of enzyme inhibition. Such methods are known to one skilled in the art. The results of this assay are expressed as the half-maximal inhibitory concentrations (IC50), or the inhibitory constant, Ki.
Compounds were pre-incubated for 30 min at 25° C. with human (0.04 nM) factor XIa in 50 mM HEPES buffer with 150 mM sodium chloride, 5 mM calcium chloride, 0.1% PEG 8000, pH 7.4. factor XIa enzymatic activity was determined by addition of the substrate glycine-proline-arginine-7-amido-4-trifluoromethylcoumarin (GPR-AFC) and measurement of the fluorescence at 400/505 nm after a 60 min incubation at 25° C. The % inhibition for each data point was calculated from the data and analyzed using the log (inhibitor) vs. response four parameters equation to determine the half-maximal inhibitory concentrations (IC50). The IC50 were converted to equilibrium inhibitory constants (Ki) using the Cheng-Prusoff equation.

T1 sequence (P03952 391-638 limits assumed): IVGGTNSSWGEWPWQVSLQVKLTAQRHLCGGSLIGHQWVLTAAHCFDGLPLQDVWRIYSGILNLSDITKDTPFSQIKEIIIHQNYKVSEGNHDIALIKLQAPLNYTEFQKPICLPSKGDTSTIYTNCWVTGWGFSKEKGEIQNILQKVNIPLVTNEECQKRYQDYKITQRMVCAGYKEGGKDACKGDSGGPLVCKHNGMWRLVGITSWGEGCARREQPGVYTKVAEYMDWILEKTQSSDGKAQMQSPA
T1 sequence (P03952 20-390 partner limits assumed): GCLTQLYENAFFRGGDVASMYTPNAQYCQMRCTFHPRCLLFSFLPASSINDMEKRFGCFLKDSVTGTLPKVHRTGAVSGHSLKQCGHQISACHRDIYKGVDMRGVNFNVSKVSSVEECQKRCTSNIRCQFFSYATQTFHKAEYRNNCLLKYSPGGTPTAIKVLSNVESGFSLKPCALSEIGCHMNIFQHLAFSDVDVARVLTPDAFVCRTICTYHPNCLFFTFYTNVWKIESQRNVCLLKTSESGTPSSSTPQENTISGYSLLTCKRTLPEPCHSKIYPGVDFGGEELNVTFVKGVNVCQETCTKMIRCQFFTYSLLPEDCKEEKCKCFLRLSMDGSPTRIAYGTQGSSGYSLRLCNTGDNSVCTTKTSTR
human factor XIa, sequence (P03951 388-625 limits assumed): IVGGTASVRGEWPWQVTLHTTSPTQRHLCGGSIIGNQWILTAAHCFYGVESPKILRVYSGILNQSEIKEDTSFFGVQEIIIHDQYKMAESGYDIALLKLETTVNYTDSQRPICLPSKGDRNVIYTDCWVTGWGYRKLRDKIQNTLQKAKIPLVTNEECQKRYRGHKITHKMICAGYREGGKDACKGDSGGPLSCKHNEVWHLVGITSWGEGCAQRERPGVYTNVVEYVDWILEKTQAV
human factor XIa, sequence (P03951 19-387 partner limits assumed): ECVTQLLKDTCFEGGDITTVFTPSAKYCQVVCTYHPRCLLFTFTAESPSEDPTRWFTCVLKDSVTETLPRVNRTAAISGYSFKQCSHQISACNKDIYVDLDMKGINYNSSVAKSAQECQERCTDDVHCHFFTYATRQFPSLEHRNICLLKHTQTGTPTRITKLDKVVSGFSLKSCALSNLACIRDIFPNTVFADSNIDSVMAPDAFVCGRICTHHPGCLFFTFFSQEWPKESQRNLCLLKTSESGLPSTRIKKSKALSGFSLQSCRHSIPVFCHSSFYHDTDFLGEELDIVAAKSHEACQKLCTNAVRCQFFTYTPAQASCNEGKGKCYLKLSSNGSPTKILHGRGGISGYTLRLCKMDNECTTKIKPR

Row | IC50 (Human plasma kallikrein) [nM] | IC50 (human factor XIa) [nM] | Compound
1 | 1 | 2260 | CC(c1cnc(N2C[C@H]3C[C@H]3C2C(=O)N(C)C)nc1)n1cc(NC(=O)c2cncc(-c3c(C(F)F)ccc(Cl)c3F)n2)cn1 (single isomer, unassigned) [Example 202, (1R,2S,5S or 1S,2R,5R)-3-(5-((R or S)-1-(4-(6-(3-Chloro-6-(difluoromethyl)-2-fluorophenyl)pyrazine-2-carboxamido)-1H-pyrazol-1-yl)ethyl)pyrimidin-2-yl)-N,N-dimethyl-3-azabicyclo[3.1.0]hexane-2-carboxamide]
2 | 24.4 | 3940 | C[C@@H](c1cnc(N2CCC2)nc1)n1cc(NC(=O)c2cncc(-c3c(C(F)(F)F)ccc(Cl)c3F)n2)cn1 (single isomer, unassigned) [Example 55]
3 | 11 | 8800 | CC(c1cnc(N2C[C@H]3C[C@H]3[C@H]2C(N)=O)nc1)n1cc(NC(=O)c2cncc(-c3c(C(F)F)ccc(Cl)c3F)n2)cn1 (relative stereo) [Example 195, (cis)-3-(5-(1-(4-(6-(3-Chloro-6-(difluoromethyl)-2-fluorophenyl)pyrazine-2-carboxamido)-1H-pyrazol-1-yl)ethyl)pyrimidin-2-yl)-3-azabicyclo[3.1.0]hexane-2-carboxamide]
4 | 6.2 | 1710 | Cc1ncc(-c2c(C(F)F)ccc(Cl)c2F)nc1C(=O)Nc1cnn(Cc2cnc(N3CC(F)(F)C3)c(C)n2)c1 [Example 11, 6-(3-Chloro-6-(difluoromethyl)-2-fluorophenyl)-N-(1-((5-(3,3-difluoroazetidin-1-yl)-6-methylpyrazin-2-yl)methyl)-1H-pyrazol-4-yl)-3-methylpyrazine-2-carboxamide]
5 | 0.3 | 502 | CC(C)(O)CNC[C@@H]1[C@@H]2C[C@@H]2CN1c1ncc(Cn2cc(NC(=O)c3cncc(-c4c(C(F)F)ccc(Cl)c4F)n3)cn2)cn1 [Example 139, 6-(3-Chloro-6-(difluoromethyl)-2-fluorophenyl)-N-(1-((2-((1R,2S,5S)-2-(((2-hydroxy-2-methylpropyl)amino)methyl)-3-azabicyclo[3.1.0]hexan-3-yl)pyrimidin-5-yl)methyl)-1H-pyrazol-4-yl)pyrazine-2-carboxamide]
6 | 3.7 | 595 | Cc1ncc(-c2c(C(F)F)ccc(Cl)c2F)nc1C(=O)Nc1cnn(C(CO)c2cnc(N3CCC3)nc2)c1 (single isomer, unassigned) [Example 46, (S or R)-N-(1-(1-(2-(Azetidin-1-yl)pyrimidin-5-yl)-2-hydroxyethyl)-1H-pyrazol-4-yl)-6-(3-chloro-6-(difluoromethyl)-2-fluorophenyl)-3-methylpyrazine-2-carboxamide]
7 | 8.6 | 838 | O=C(Nc1cnn(Cc2cnc(N3CCC3)nc2)c1)c1nc(-c2c(C(F)F)ccc(Cl)c2F)cnc1C(F)F [Example 136, N-(1-((2-(Azetidin-1-yl)pyrimidin-5-yl)methyl)-1H-pyrazol-4-yl)-6-(3-chloro-6-(difluoromethyl)-2-fluorophenyl)-3-(difluoromethyl)pyrazine-2-carboxamide]
8 | 10.6 | 326 | Cc1ncc(-c2c(C(F)F)ccc(Cl)c2F)nc1C(=O)Nc1cnn(C(CO)c2cnc(N3CCC3)nc2)c1 (single isomer, unassigned) [Example 47, (R or S)-N-(1-(1-(2-(Azetidin-1-yl)pyrimidin-5-yl)-2-hydroxyethyl)-1H-pyrazol-4-yl)-6-(3-chloro-6-(difluoromethyl)-2-fluorophenyl)-3-methylpyrazine-2-carboxamide]
9 | 13.1 | 2000 | O=C(Nc1cnn(Cc2ccc(N3CCC3)nc2)c1)c1cncc(-c2c(C(F)F)ccc(Cl)c2F)n1 [Example 18, N-(1-((6-(Azetidin-1-yl)pyridin-3-yl)methyl)-1H-pyrazol-4-yl)-6-(3-chloro-6-(difluoromethyl)-2-fluorophenyl)pyrazine-2-carboxamide]
10 | 47 | 730 | COc1ccc(-n2cnnn2)c(-c2cncc(C(=O)Nc3cnn(C(C)c4cnc(N5CCC5)nc4)c3)n2)c1 (single isomer, unassigned) [Example 60, (S or R)-N-(1-(1-(2-(Azetidin-1-yl)pyrimidin-5-yl)ethyl)-1H-pyrazol-4-yl)-6-(5-methoxy-2-(1H-tetrazol-1-yl)phenyl)pyrazine-2-carboxamide]
11 | 3.8 | 869 | Cc1ncc(-c2c(C(F)F)ccc(Cl)c2F)nc1C(=O)Nc1cnn(C(C)c2cnc(N3CCC3)nc2)c1 (single isomer, unassigned) [Example 27, (S or R)-N-(1-(1-(2-(azetidin-1-yl)pyrimidin-5-yl)ethyl)-1H-pyrazol-4-yl)-6-(3-chloro-6-(difluoromethyl)-2-fluorophenyl)-3-methylpyrazine-2-carboxamide]
12 | 1 | 7720 | C[C@@H](F)CN(C)CC1CCCN1c1ncc(Cn2cc(NC(=O)c3cncc(-c4c(C(F)F)ccc(Cl)c4F)n3)cn2)cn1 (stereo partly drawn) [Example 151, 6-(3-Chloro-6-(difluoromethyl)-2-fluorophenyl)-N-(1-((2-(2-((((R)-2-fluoropropyl)(methyl)amino)methyl)pyrrolidin-1-yl)pyrimidin-5-yl)methyl)-1H-pyrazol-4-yl)pyrazine-2-carboxamide]
13 | 19.9 | 4310 | CC(c1cnc(N2CC3(CC3)C2)nc1)n1cc(NC(=O)c2cncc(-c3c(C(F)F)ccc(Cl)c3F)n2)cn1 (single isomer, unassigned) [Example 93, (R or S)-N-(1-(1-(2-(5-Azaspiro[2.3]hexan-5-yl)pyrimidin-5-yl)ethyl)-1H-pyrazol-4-yl)-6-(3-chloro-6-(difluoromethyl)-2-fluorophenyl)pyrazine-2-carboxamide]
14 | 1.3 | 478 | Cc1nc(C(C)n2cc(NC(=O)c3cncc(-c4c(C(F)F)ccc(Cl)c4F)n3)cn2)cnc1N1CCC1 (single isomer, unassigned) [Example 39, (S or R)-N-(1-(1-(5-(azetidin-1-yl)-6-methylpyrazin-2-yl)ethyl)-1H-pyrazol-4-yl)-6-(3-chloro-6-(difluoromethyl)-2-fluorophenyl)pyrazine-2-carboxamide]
15 | 46.5 | 3000 | O=C(Nc1cnn(Cc2cnc(N3CC[C@@H]3CO)nc2)c1)c1cncc(-c2c(C(F)F)ccc(Cl)c2F)n1 [Example 111, (R)-6-(3-Chloro-6-(difluoromethyl)-2-fluorophenyl)-N-(1-((2-(2-(hydroxymethyl)azetidin-1-yl)pyrimidin-5-yl)methyl)-1H-pyrazol-4-yl)pyrazine-2-carboxamide]
16 | 26.9 | 8930 | NC(=O)[C@H]1CCCN1c1ncc(Cn2cc(NC(=O)c3cncc(-c4c(C(F)F)ccc(Cl)c4F)n3)cn2)cn1 [Example 97, (R)-N-(1-((2-(2-Carbamoylpyrrolidin-1-yl)pyrimidin-5-yl)methyl)-1H-pyrazol-4-yl)-6-(3-chloro-6-(difluoromethyl)-2-fluorophenyl)pyrazine-2-carboxamide]
17 | 25.7 | 3030 | C[C@H](c1cnc(N2CCC2)nc1)n1cc(NC(=O)c2cncc(-c3c(C(F)(F)F)ccc(Cl)c3F)n2)cn1 (single isomer, unassigned) [Example 54]
18 | 3.9 | 639 | Cc1cc(N2CCC2)ncc1[C@H](C)n1cc(NC(=O)c2cncc(-c3c(C(F)F)ccc(Cl)c3F)n2)cn1 (single isomer, unassigned) [Example 66]
19 | 23.2 | 992 | O=C(Nc1cnn(C(CO)c2cnc(N3CC4CC4C3)nc2)c1)c1cncc(-c2c(C(F)F)ccc(Cl)c2F)n1 (single isomer, unassigned) [Example 45, N-(1-((R or S)-1-(2-(3-Azabicyclo[3.1.0]hexan-3-yl)pyrimidin-5-yl)-2-hydroxyethyl)-1H-pyrazol-4-yl)-6-(3-chloro-6-(difluoromethyl)-2-fluorophenyl)pyrazine-2-carboxamide]
20 | 5.9 | 2860 | O=C(Nc1cnn(Cc2cnc(N3CC4CC4C3CO)nc2)c1)c1cncc(-c2c(C(F)F)ccc(Cl)c2F)n1 (single isomer, unassigned) [Example 79, 6-(3-Chloro-6-(difluoromethyl)-2-fluorophenyl)-N-(1-((2-((1R,2S,5S or 1S,2R,5R)-2-(hydroxymethyl)-3-azabicyclo[3.1.0]hexan-3-yl)pyrimidin-5-yl)methyl)-1H-pyrazol-4-yl)pyrazine-2-carboxamide]
21 | 26 | 1760 | COc1nc(N2CCC2)ncc1Cn1cc(NC(=O)c2cncc(-c3c(C(F)F)ccc(Cl)c3F)n2)cn1 [Example 23, N-(1-((2-(Azetidin-1-yl)-4-methoxypyrimidin-5-yl)methyl)-1H-pyrazol-4-yl)-6-(3-chloro-6-(difluoromethyl)-2-fluorophenyl)pyrazine-2-carboxamide]
22 | 17 | 973 | O=C(Nc1cnn(C2(c3cnc(N4CCC4)nc3)CC2)c1)c1cncc(-c2c(C(F)F)ccc(Cl)c2F)n1 [Example 21, N-(1-(1-(2-(Azetidin-1-yl)pyrimidin-5-yl)cyclopropyl)-1H-pyrazol-4-yl)-6-(3-chloro-6-(difluoromethyl)-2-fluorophenyl)pyrazine-2-carboxamide]
